Data taken from patent publication US10463670B2, “Use of non-peptide NK1 antagonists in a predetermined dose for the treatment of cancer” (SERVICIO ANDALUZ DE SALUD, priority 2013, dated 2019).

What was measured:
[1] = system: human glioma; reference GAMG; assay: Glioma GAMG tumours implanted s.c. in nude mice, Aprepitant alone; type: in vivo
Method: (§1) Immunocompromised female mice, 5-6 weeks of age were used, nu/nu Balb/c nude mice, provided by Harlan Iberica Barcelona (Spain). They were kept at 24° C. and in sterile conditions with food and water “ad libitum”. They were injected with 2×10^7 tumour cells, corresponding to cancer (human lung cancer, reference HCC-44 supplied by DSMZ) in 200 μl of PBS subcutaneous route. The tumour size was measured and the mice were evaluated for their state of health and weight daily. The mice were randomized in nine groups when the tumours reached a volume of 75 mm^3. One of the groups was treated with 200 μl of placebo (control group) and the eight remaining groups with doses of 10 (group 1), 20 (group 2), 30 (group 3), 40 (group 4), 50 (group 5), 60 (group 6), 70 (group 7) and 80 (group 8) mg per kilogram of weight and day of the NK1 receptor antagonist Aprepitant. 3 animals were treated per group, during 28 days. All the mice were sacrificed at the end of the experiment.
(§2) Immunocompromised female mice, 5-6 weeks of age were used, in the same conditions as explained in example 1. They were injected with 2×10^7 tumour cells, corresponding to a glial cell line tumour of the central nervous system human (human glioma; reference GAMG; supplied by DSMZ) in 200 μl of PBS by subcutaneous route. The tumour size was measured and the mice were evaluated for their state of health and weight daily. The mice were randomized in nine groups when the tumours reached a volume of 75 mm^3. One of the groups was treated with 200 μl of placebo (control group) and the eight remaining groups with doses of 10 (group 1), 20 (group 2), 30 (group 3), 40 (group 4), 50 (group 5), 60 (group 6), 70 (group 7) and 80 (group 8) mg per kilogram of weight and day of the NK1 receptor antagonist Aprepitant. 3 animals were treated per group, during 28 days. All the mice were sacrificed at the end of the experiment.

[2] = system: human fibrosarcoma; reference HT-1080; assay: Fibrosarcoma HT-1080 tumours implanted s.c. in nude mice, Aprepitant alone; type: in vivo
Method: as §1
as §2, with “mesenchymal” for “glial”, “tumour” for “tumour of the central nervous system human”, “fibrosarcoma;” for “glioma;”, “HT-1080;” for “GAMG;”

Human glioma GAMG = assay: MTS cell proliferation, nanomolar antagonist, GAMG; type: cell-based; conditions: Aprepitant 1, 5 and 7 nM, vs cells grown in the absence of antagonist, time dependant
Method: Cell cultures of various commercial tumour cell lines stated in table 13 were used. [table] […] The number of cells was quantified using a Coulter counter. […] The culture plates were grown in the presence of increasing concentrations of non-peptide NK1 receptor antagonists. To obtain the staining in the proliferation assays, 20 μl of MTS were added to each one of the wells of the cell culture plates 90 minutes before reading the samples in a multiscan spectrophotometer (TECAN Spectra classic, Barcelona, Spain) at 492 nm (assay wavelength) and 690 nm (reference wavelength). The different doses were tested in duplicate and each experiment was performed in triplicate. The antagonist Aprepitant was used at the following concentrations: 1 nanomolar -nM-, 5 nanomolar -nM- and 7 nanomolar -nM-. […] As proliferation control, the cells were grown in the absence of said antagonist. This is expressed in FIGS. 1 to 10.

[3] = Aprepitant 10 mg/kg/day, 7 days
[4] = Aprepitant 10 mg/kg/day, 14 days
[5] = Aprepitant 10 mg/kg/day, 21 days
[6] = Aprepitant 10 mg/kg/day, 28 days
[7] = Aprepitant 20 mg/kg/day, 7 days
[8] = Aprepitant 20 mg/kg/day, 14 days
[9] = Aprepitant 20 mg/kg/day, 21 days
[10] = Aprepitant 20 mg/kg/day, 28 days
[11] = Aprepitant 30 mg/kg/day, 7 days
[12] = Aprepitant 30 mg/kg/day, 14 days
[13] = Aprepitant 30 mg/kg/day, 21 days
[14] = Aprepitant 30 mg/kg/day, 28 days
[15] = Aprepitant 40 mg/kg/day, 7 days
[16] = Aprepitant 40 mg/kg/day, 14 days
[17] = Aprepitant 40 mg/kg/day, 21 days
[18] = Aprepitant 40 mg/kg/day, 28 days
[19] = Aprepitant 50 mg/kg/day, 7 days
[20] = Aprepitant 50 mg/kg/day, 14 days
[21] = Aprepitant 50 mg/kg/day, 21 days
[22] = Aprepitant 50 mg/kg/day, 28 days
[23] = Aprepitant 60 mg/kg/day, 7 days
[24] = Aprepitant 60 mg/kg/day, 14 days
[25] = Aprepitant 60 mg/kg/day, 21 days
[26] = Aprepitant 60 mg/kg/day, 28 days
[27] = Aprepitant 70 mg/kg/day, 7 days
[28] = Aprepitant 70 mg/kg/day, 14 days
[29] = Aprepitant 70 mg/kg/day, 21 days
[30] = Aprepitant 70 mg/kg/day, 28 days
[31] = Aprepitant 80 mg/kg/day, 7 days
[32] = Aprepitant 80 mg/kg/day, 14 days
[33] = Aprepitant 80 mg/kg/day, 21 days
[34] = Aprepitant 80 mg/kg/day, 28 days

C[C@@H](O[C@H]1OCCN(Cc2n[nH]c(=O)[nH]2)[C@H]1c1ccc(F)cc1)c1cc(C(F)(F)F)cc(C(F)(F)F)c1 [Aprepitant]
Tumour size (mean volume of the tumour) [1, 3]: 205 ± 3 cubic millimeters
Tumour size (mean volume of the tumour) [1, 4]: 185 ± 6 cubic millimeters
Tumour size (mean volume of the tumour) [1, 5]: 170 ± 7 cubic millimeters
Tumour size (mean volume of the tumour) [1, 6]: 155 ± 4 cubic millimeters
Tumour size (mean volume of the tumour) [1, 7]: 190 ± 4 cubic millimeters
Tumour size (mean volume of the tumour) [1, 8]: 160 ± 7 cubic millimeters
Tumour size (mean volume of the tumour) [1, 9]: 150 ± 6 cubic millimeters
Tumour size (mean volume of the tumour) [1, 10]: 125 ± 5 cubic millimeters
Tumour size (mean volume of the tumour) [1, 11]: 160 ± 4 cubic millimeters
Tumour size (mean volume of the tumour) [1, 12]: 145 ± 7 cubic millimeters
Tumour size (mean volume of the tumour) [1, 13]: 120 ± 6 cubic millimeters
Tumour size (mean volume of the tumour) [1, 14]: 105 ± 4 cubic millimeters
Tumour size (mean volume of the tumour) [1, 15]: 155 ± 6 cubic millimeters
Tumour size (mean volume of the tumour) [1, 16]: 125 ± 5 cubic millimeters
Tumour size (mean volume of the tumour) [1, 17]: 110 ± 5 cubic millimeters
Tumour size (mean volume of the tumour) [1, 18]: 90 ± 9 cubic millimeters
Tumour size (mean volume of the tumour) [1, 19]: 125 ± 5 cubic millimeters
Tumour size (mean volume of the tumour) [1, 20]: 110 ± 5 cubic millimeters
Tumour size (mean volume of the tumour) [1, 21]: 100 ± 5 cubic millimeters
Tumour size (mean volume of the tumour) [1, 22]: 80 ± 8 cubic millimeters
Tumour size (mean volume of the tumour) [1, 23]: 95 ± 5 cubic millimeters
Tumour size (mean volume of the tumour) [1, 24]: 85 ± 6 cubic millimeters
Tumour size (mean volume of the tumour) [1, 25]: 60 ± 6 cubic millimeters
Tumour size (mean volume of the tumour) [1, 26]: 50 ± 7 cubic millimeters
Tumour size (mean volume of the tumour) [1, 27]: 75 ± 6 cubic millimeters
Tumour size (mean volume of the tumour) [1, 28]: 60 ± 5 cubic millimeters
Tumour size (mean volume of the tumour) [1, 29]: 55 ± 5 cubic millimeters
Tumour size (mean volume of the tumour) [1, 30]: 35 ± 8 cubic millimeters
Tumour size (mean volume of the tumour) [1, 31]: 60 ± 3 cubic millimeters
Tumour size (mean volume of the tumour) [1, 32]: 45 ± 6 cubic millimeters
Tumour size (mean volume of the tumour) [1, 33]: 25 ± 7 cubic millimeters
Tumour size (mean volume of the tumour) [1, 34]: 15 ± 10 cubic millimeters
Tumour size (mean volume of the tumour) [2, 3]: 220 ± 4 cubic millimeters
Tumour size (mean volume of the tumour) [2, 4]: 205 ± 4 cubic millimeters
Tumour size (mean volume of the tumour) [2, 5]: 195 ± 6 cubic millimeters
Tumour size (mean volume of the tumour) [2, 6]: 170 ± 6 cubic millimeters
Tumour size (mean volume of the tumour) [2, 7]: 195 ± 5 cubic millimeters
Tumour size (mean volume of the tumour) [2, 8]: 180 ± 5 cubic millimeters
Tumour size (mean volume of the tumour) [2, 9]: 165 ± 7 cubic millimeters
Tumour size (mean volume of the tumour) [2, 10]: 150 ± 7 cubic millimeters
Tumour size (mean volume of the tumour) [2, 11]: 175 ± 5 cubic millimeters
Tumour size (mean volume of the tumour) [2, 12]: 155 ± 6 cubic millimeters
Tumour size (mean volume of the tumour) [2, 13]: 135 ± 5 cubic millimeters
Tumour size (mean volume of the tumour) [2, 14]: 140 ± 4 cubic millimeters
Tumour size (mean volume of the tumour) [2, 15]: 160 ± 4 cubic millimeters
Tumour size (mean volume of the tumour) [2, 16]: 150 ± 3 cubic millimeters
Tumour size (mean volume of the tumour) [2, 17]: 120 ± 5 cubic millimeters
Tumour size (mean volume of the tumour) [2, 18]: 110 ± 6 cubic millimeters
Tumour size (mean volume of the tumour) [2, 19]: 145 ± 5 cubic millimeters
Tumour size (mean volume of the tumour) [2, 20]: 135 ± 7 cubic millimeters
Tumour size (mean volume of the tumour) [2, 21]: 100 ± 3 cubic millimeters
Tumour size (mean volume of the tumour) [2, 22]: 100 ± 7 cubic millimeters
Tumour size (mean volume of the tumour) [2, 23]: 135 ± 7 cubic millimeters
Tumour size (mean volume of the tumour) [2, 24]: 120 ± 6 cubic millimeters
Tumour size (mean volume of the tumour) [2, 25]: 90 ± 8 cubic millimeters
Tumour size (mean volume of the tumour) [2, 26]: 85 ± 4 cubic millimeters
Tumour size (mean volume of the tumour) [2, 27]: 120 ± 8 cubic millimeters
Tumour size (mean volume of the tumour) [2, 28]: 100 ± 4 cubic millimeters
Tumour size (mean volume of the tumour) [2, 29]: 85 ± 6 cubic millimeters
Tumour size (mean volume of the tumour) [2, 30]: 80 ± 7 cubic millimeters
Tumour size (mean volume of the tumour) [2, 31]: 100 ± 4 cubic millimeters
Tumour size (mean volume of the tumour) [2, 32]: 90 ± 8 cubic millimeters
Tumour size (mean volume of the tumour) [2, 33]: 70 ± 8 cubic millimeters
Tumour size (mean volume of the tumour) [2, 34]: 65 ± 9 cubic millimeters
Proliferation of tumour cells (MTS) (Human glioma GAMG): increase was observed of proliferation
